Read-outs that look alike come from different tables or passages of the source.
Assay: In vivo pharmacokinetic studies of pyridyl substituted ketolides in rats (plasma and whole lung, LC-MS-MS)
Conditions: male Sprague-Dawley rats; for clearance / Vd / AUC / bioavailability / half-life / Kp: rat; for clearance / Vd: IV = 5 mg/kg, PO = 15 mg/kg; for clearance: read-out: CL (clearance of the compound from plasma); for Vd: read-out: Vss (volume of distribution); for bioavailability: read-out: F, PO (% bioavailability); for Kp: whole lung vs plasma, read-out: L/P ratio, IV (ratio of drug in lung/plasma after IV dosing)
Experimental: Animal Models. A total of 54 male Sprague-Dawley rats, weighing 200 grams in average, are evaluated for pharmacokinetic studies of representative substituted pyridyl ketolides. Rats are under overnight food restriction and receive water ad libitum. Rats are acclimated for approximately 5 days before antibiotic administration. Antibiotic Administration. Rats are given bolus administration through intravenous (IV) and oral (PO) routes. Representative substituted pyridyl ketolides and telithromycin, for comparison, are diluted in 0.85% saline to a concentration of 15.0 mg/ml, and the resulting pH is adjusted using 1N acetic acid until the compound is in solution. Approximately 200 μl of the compound solution is administered to the rats. The target dose for IV and PO administration is 5 mg/kg and 15 mg/kg, respectively. Sample Collection. Plasma and whole lung samples are collected from the rats. Plasma samples are obtained from blood samples by centrifugation at 3000 RPM for 10 min. Heparin is added in the plasma as an anticoagulant. Whole lung samples are homogenized in deionized water. Samples are stored at −80° C. A total of 9 time points are collected in triplicate at 0.083, 0.25, 0.5, 1, 2, 4, 6, 8, and 24 h. Ketolide concentrations in plasma and lung are determined by well-established non-GLP LC-MS-MS methods. PK parameters are estimated from the raw bioanalytical data using WinNolin software (Version 4.0, Pharsight Corporation, CA). All representative compounds are compared to telithromycin.

[1] = plasma, PO 15 mg/kg vs IV 5 mg/kg
[2] = IV bolus 5 mg/kg, plasma, read-out: t1/2, IV Plasma (converted)
[3] = PO 15 mg/kg, plasma, read-out: t1/2, PO Plasma (converted)

| SMILES | clearance (plasma) [mL/min/kg] | Vd (plasma) [L/kg] | AUC (plasma, IV bolus 5 mg/kg) [ng·h/mL] | bioavailability [1] [%] | half-life [2] [h] | Kp (IV bolus 5 mg/kg) | half-life [3] [h] | t1/2, IV Plasma (IV bolus 5 mg/kg, plasma) [h] | F, PO (% bioavailability) (PO 15 mg/kg vs IV 5 mg/kg) [%] | t1/2, PO Plasma (PO 15 mg/kg, plasma) [h] |
| --- | --- | --- | --- | --- | --- | --- | --- | --- | --- | --- |
| CC[C@H]1OC(=O)[C@H](C)C(=O)[C@H](C)[C@@H](O[C@@H]2O[C@H](C)C[C@H](N(C)C)[C@H]2O)[C@@](C)(OC)C[C@@H](C)C(=O)[C@H](C)[C@H]2N(CCCCn3cnc(-c4ccc(Cl)nc4)c3)C(=O)O[C@]12C [Cmpd E] | 38 | 5.6 | 2200 | 86 | 1.6 | 29 | 3.3 |  |  |  |
| CC[C@H]1OC(=O)[C@H](C)C(=O)[C@H](C)[C@@H](O[C@@H]2O[C@H](C)C[C@H](N(C)C)[C@H]2O)[C@@](C)(OC)C[C@@H](C)C(=O)[C@H](C)[C@H]2N(CCCCn3cnc(-c4ccc(C)nc4)c3)C(=O)O[C@]12C [Cmpd B] | 48 | 6.5 | 1700 | 54 | 1.8 | 27 | 3.3 |  |  |  |
| CC[C@H]1OC(=O)[C@H](C)C(=O)[C@H](C)[C@@H](O[C@@H]2O[C@H](C)C[C@H](N(C)C)[C@H]2O)[C@](C)(OC)C[C@@H](C)C(=O)[C@H](C)[C@H]2N(CCCCn3cnc(-c4cccnc4)c3)C(=O)O[C@]12C [Telithromycin, telithromycin, reference compound] | 100 | 5 |  |  |  | 16 |  | 1.0 | 11 | 1.5 |
| CC[C@H]1OC(=O)[C@H](C)C(=O)[C@H](C)[C@@H](OC2O[C@H](C)C[C@H](N(C)C)[C@H]2O)[C@@](C)(OC)C[C@@H](C)C(=O)[C@H](C)[C@H]2N(CCCCn3cnc(-c4ccc(OC)nc4)c3)C(=O)O[C@]12C (some centres unmarked) [Cmpd D] | 25 | 4.3 | 3000 | 100 | 2.1 | 32 |  |  |  |  |

From patent US7163924B2, “Ketolide derivatives” (Chiron Corporation, priority 2003, dated 2007)
